This is an account of results in US20070167464A1, “Fungicidal mixtures” (BASF Aktiengesellschaft, priority 2004, published 2007).

The experiment concerns Pyrenophora teres. The experiment can be described thus: activity against net blotch of barley caused by Pyrenophora teres, 1-day-protective application. In kind it is in vivo, Pyrenophora [syn. Drechslera] teres on barley seedlings. As to conditions: individual active compound, evaluated after 6 days. On the procedure:
The active compounds, separately or jointly, were prepared as a stock solution comprising 0.25% by weight of active compound in acetone or DMSO. 1% by weight of the emulsifier Uniperol® EL (wetting agent having emulsifying and dispersant action based on ethoxylated alkylphenols) was added to this solution, and the mixture was diluted with water to the desired concentration.
Use example-activity against net blotch of barley caused by Pyrenophora teres, 1-day-protective application
Leaves of pot-grown barley seedlings were sprayed to run-off point with an aqueous suspension having the concentration of active compound stated below. 24 hours after the spray coating had dried on, the test plants were inoculated with an aqueous spore suspension of Pyrenophora[syn. Drechslera] teres, the causative agent of net blotch. The test plants were subsequently placed in a greenhouse at temperatures between 20 and 24° C. and at 95 to 100% relative atmospheric humidity. After 6 days, the extent of development of the disease was determined visually in % infection of the total leaf area.
The visually determined percentages of infected leaf areas were converted into efficacies in % of the untreated control:
The efficacy (E) is calculated as follows using Abbot's formula: E=(1α/β)·100 • α corresponds to the fungicidal infection of the treated plants in % and • β corresponds to the fungicidal infection of the untreated (control) plants in %
An efficacy of 0 means that the infection level of the treated plants corresponds to that of the untreated control plants; an efficacy of 100 means that the treated plants were not infected.
The expected efficacies of mixtures of active compounds were determined using Colby's formula (Colby, S. R. “Calculating synergistic and antagonistic responses of herbicide combinations”, Weeds, 15, 20-22, 1967) and compared with the observed efficacies.
Colby's Formula: E=x+y−x·y/100 • E expected efficacy, expressed in % of the untreated control, when using the mixture of the active compounds A and B at the concentrations a and b • x efficacy, expressed in % of the untreated control, when using the active compound A at the concentration a
y efficacy, expressed in % of the untreated control, when using the active compound B at the concentration b

Take `CC1CCN(c2c(-c3c(F)cc(F)cc3F)c(Cl)nc3ncnn23)CC1` [I, 5-chloro-7-(4-methylpiperidin-1-yl)-6-(2,4,6-trifluorophenyl)-[1,2,4]triazolo[1,5-a]pyrimidine]: for the setting “1.25 ppm in the spray liquor”, the “Efficacy in % of the untreated control” value was 53%.
With `CC(C)OC(=O)N[C@H](C(=O)N[C@H](C)c1nc2ccc(F)cc2s1)C(C)C` [II.1, isopropyl {(S)-1-[(1 R)-1-(6-fluorobenzothiazol-2-yl)ethylcarbamoyl]-2-methylpropyl}carbamate], the “Efficacy in % of the untreated control” value (0.25 ppm in the spray liquor) is listed as 0%, the “Efficacy in % of the untreated control” value (1.25 ppm in the spray liquor) amounted to 0% and the “Efficacy in % of the untreated control” value (6.25 ppm in the spray liquor) was 0%.
